Experimental data as given in patent US6958142B2, “Nasal spray formulation and method” (Balance Pharmaceuticals, Inc., priority 2002, dated 2005).
Values after ≈ are worked out from the molar mass of the structure shown. Values joined by “and” are separate entries in the source; they are usually repeats but may differ in a detail not shown here. Identical values can stand only once. Like-named read-outs stand apart in the source and are kept apart here.

What was measured:
[1] = Serum testosterone average concentration over 24 hours after intranasal testosterone
Procedure: In another study, five women were treated with intranasal testosterone.

physchem = details: aqueous with cosolvent or surfactant or cyclodextrin, thermodynamic from solid
[2] = at 25° C.; cited from earlier work

Compound: C[C@]12CC[C@H]3[C@@H](CCC4=CC(=O)CC[C@@]43C)[C@@H]1CC[C@@H]2O [Testosterone, testosterone]
- Testosterone average concentration over 24 hours ([1]; intranasal 250 μg testosterone in preparation with deslorelin and estradiol, Day 1, individual subjects): 26.7 ng/dL (2×) and 19.0 ng/dL and 18.8 ng/dL and 19.1 ng/dL
- Testosterone average concentration over 24 hours ([1]; intranasal 250 μg testosterone in preparation with deslorelin and estradiol, Day 8, individual subjects): 29.9 ng/dL and 17.1 ng/dL and 16.5 ng/dL and 16.2 ng/dL and 24.1 ng/dL
- Testosterone average concentration over 24 hours ([1]; intranasal 250 μg testosterone, average of both observations (Day 1, Day 8) in each of the 5 subjects): 21.4 ng/dL
- solubility (physchem; Estradiol and Testosterone solubility, both steroids together in aqueous HPβCD 10 mg/mL): 0.658 mg/mL (≈ 2.28 mM)
- solubility (physchem; Estradiol and Testosterone solubility, both steroids together in aqueous HPβCD 40 mg/mL): 2.82 mg/mL (≈ 9.77 mM)
- solubility (physchem; Estradiol and Testosterone solubility, both steroids together in aqueous HPβCD 70 mg/mL): 5.07 mg/mL (≈ 17.6 mM)
- solubility (physchem; Estradiol and Testosterone solubility, both steroids together in aqueous HPβCD 100 mg/mL): 7.11 mg/mL (≈ 24.7 mM)
- solubility (physchem; Estradiol and Testosterone solubility, both steroids together in aqueous HPβCD 130 mg/mL): 10.6 mg/mL (≈ 36.6 mM)
- solubility (physchem; Estradiol and Testosterone solubility, both steroids together in aqueous HPβCD 160 mg/mL): 13.4 mg/mL (≈ 46.5 mM)
- solubility (physchem; Estradiol and Testosterone solubility, both steroids together in aqueous HPβCD 190 mg/mL): 15.7 mg/mL (≈ 54.6 mM)
- solubility (physchem; Estradiol and Testosterone solubility, both steroids together in aqueous HPβCD 250 mg/mL): 20 mg/mL (≈ 69.3 mM)
- solubility (physchem; solubility, steroid alone in aqueous HPβCD 10 mg/mL): 0.81 mg/mL (≈ 2.81 mM)
- solubility (physchem; solubility, steroid alone in aqueous HPβCD 40 mg/mL): 2.54 mg/mL (≈ 8.81 mM)
- solubility (physchem; solubility, steroid alone in aqueous HPβCD 70 mg/mL): 5.63 mg/mL (≈ 19.5 mM)
- solubility (physchem; solubility, steroid alone in aqueous HPβCD 100 mg/mL): 6.82 mg/mL (≈ 23.6 mM)
- solubility (physchem; solubility, steroid alone in aqueous HPβCD 130 mg/mL): 11.6 mg/mL (≈ 40.4 mM)
- solubility (physchem; solubility, steroid alone in aqueous HPβCD 160 mg/mL): 13.9 mg/mL (≈ 48.1 mM)
- solubility (physchem; solubility, steroid alone in aqueous HPβCD 190 mg/mL): 16.5 mg/mL (≈ 57.3 mM)
- solubility (physchem; solubility, steroid alone in aqueous HPβCD 220 mg/mL): 18.6 mg/mL (≈ 64.5 mM)
- solubility (physchem; solubility, steroid alone in aqueous HPβCD 250 mg/mL): 21.7 mg/mL (≈ 75.2 mM)
- Molar Ratio steroid/HPβCD (both steroids together, HPβCD 10 mg/mL): 0.31
- Molar Ratio steroid/HPβCD (both steroids together, HPβCD 40 mg/mL): 0.34
- Molar Ratio steroid/HPβCD (both steroids together, HPβCD 70 mg/mL): 0.35
- Molar Ratio steroid/HPβCD (both steroids together, HPβCD 100 mg/mL): 0.34
- Molar Ratio steroid/HPβCD (both steroids together, HPβCD 130 mg/mL): 0.39
- Molar Ratio steroid/HPβCD (both steroids together, HPβCD 160 mg/mL): 0.40
- Molar Ratio steroid/HPβCD (both steroids together, HPβCD 190 mg/mL): 0.40
- Molar Ratio steroid/HPβCD (both steroids together, HPβCD 250 mg/mL): 0.38
- Molar Ratio steroid/HPβCD (steroid alone, HPβCD 10 mg/mL): 0.39
- Molar Ratio steroid/HPβCD (steroid alone, HPβCD 40 mg/mL): 0.30
- Molar Ratio steroid/HPβCD (steroid alone, HPβCD 70 mg/mL): 0.38
- Molar Ratio steroid/HPβCD (steroid alone, HPβCD 100 mg/mL): 0.33
- Molar Ratio steroid/HPβCD (steroid alone, HPβCD 130 mg/mL): 0.43
- Molar Ratio steroid/HPβCD (steroid alone, HPβCD 160 mg/mL): 0.41
- Molar Ratio steroid/HPβCD (steroid alone, HPβCD 190 mg/mL): 0.42
- Molar Ratio steroid/HPβCD (steroid alone, HPβCD 220 mg/mL): 0.40
- Molar Ratio steroid/HPβCD (steroid alone, HPβCD 250 mg/mL): 0.41

Compound: OC[C@H]1O[C@@H]2O[C@H]3[C@H](O)[C@@H](O)[C@@H](O[C@H]4[C@H](O)[C@@H](O)[C@@H](O[C@H]5[C@H](O)[C@@H](O)[C@@H](O[C@H]6[C@H](O)[C@@H](O)[C@@H](O[C@H]7[C@H](O)[C@@H](O)[C@@H](O[C@H]8[C@H](O)[C@@H](O)[C@@H](O[C@H]9[C@H](O)[C@@H](O)[C@@H](O[C@H]%10[C@H](O)[C@@H](O)[C@@H](O[C@H]1[C@H](O)[C@H]2O)O[C@@H]%10CO)O[C@@H]9CO)O[C@@H]8CO)O[C@@H]7CO)O[C@@H]6CO)O[C@@H]5CO)O[C@@H]4CO)O[C@@H]3CO [δ-cyclodextrin]
- water solubility [2]: 8.19 g/100 mL
